Molecular target: T1, PTP1B (Homo sapiens, UniProt P18031)
T1 sequence (P18031 1-435): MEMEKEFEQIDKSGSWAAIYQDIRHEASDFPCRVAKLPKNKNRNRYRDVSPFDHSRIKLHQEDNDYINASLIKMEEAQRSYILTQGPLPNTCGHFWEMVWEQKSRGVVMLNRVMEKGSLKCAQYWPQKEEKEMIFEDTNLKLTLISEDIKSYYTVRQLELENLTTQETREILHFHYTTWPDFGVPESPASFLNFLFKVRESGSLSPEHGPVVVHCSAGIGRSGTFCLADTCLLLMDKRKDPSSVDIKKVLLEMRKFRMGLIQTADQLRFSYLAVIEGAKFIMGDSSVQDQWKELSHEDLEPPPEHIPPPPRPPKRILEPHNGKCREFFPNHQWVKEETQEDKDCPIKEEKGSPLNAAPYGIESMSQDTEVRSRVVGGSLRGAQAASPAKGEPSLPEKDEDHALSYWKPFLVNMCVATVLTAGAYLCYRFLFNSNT
Assay: PTP1B activity (IC50)
Format: biochemical

Structure (SMILES)	IC50 [nM]
COC(=O)N[C@@H](Cc1ccccc1)C(=O)N[C@@H](Cc1ccc(NS(=O)(=O)O)cc1)c1nc(-c2ccsc2)cs1 [compound 73]	900
COC(=O)N[C@@H](Cc1ccccc1)C(=O)N[C@@H](Cc1ccc(NS(=O)(=O)O)cc1)c1cscn1 [compound 76]	370
COC(=O)N[C@@H](Cc1ccccc1)C(=O)N[C@@H](Cc1ccc(NS(=O)(=O)O)cc1)c1csc(-c2ccc(-c3ccccn3)s2)n1 [compound 77]	510
COC(=O)N[C@@H](Cc1ccccc1)C(=O)N[C@@H](Cc1ccc(NS(=O)(=O)O)cc1)c1nc(C)c(-c2ccccc2)s1 [compound 78]	170
COC(=O)N[C@@H](Cc1ccccc1)C(=O)N[C@@H](Cc1ccc(NS(=O)(=O)O)cc1)c1nc2ccccc2s1 [compound 79]	740
CCc1csc([C@H](Cc2ccc(NS(=O)(=O)O)cc2)NC(=O)[C@H](Cc2ccccc2)NC(=O)CNC(=O)OC)n1 [compound 80]	300
CCc1cnc([C@H](Cc2ccc(NS(=O)(=O)O)cc2)NC(=O)[C@H](Cc2ccccc2)N(C)C(=O)OC)s1 [compound 81]	640
CCc1nc([C@H](Cc2ccc(NS(=O)(=O)O)cc2)NC(=O)[C@H](Cc2ccccc2)N(C)C(=O)OC)cs1 [compound 82]	700
COC(=O)N(C)[C@@H](Cc1ccccc1)C(=O)N[C@@H](Cc1ccc(NS(=O)(=O)O)cc1)c1csc(-c2cccs2)n1 [compound 83]	13200

Source: patent publication US8846685B2, “Human protein tyrosine phosphatase inhibitors and methods of use” (Aerpio Therapeutics Inc., priority 2006, dated 2014)
